From ChEMBL document CHEMBL5096191 (J Med Chem, 2021)

Assays:
Type in all cases: functional, cell-based
Cannabinoid receptor 2 [1] = molecular target: T1, Cannabinoid receptor 2 (Homo sapiens, UniProt P34972); experiment: Partial agonist activity at wild type CB2 receptor (unknown origin) expressed in HEK293T assessed as increase in picometer shifts of reflected light wavelengths by DMR assay relative to control; conditions: filed as partial agonist
Cannabinoid receptor 2 [2] = molecular target: T1, Cannabinoid receptor 2; experiment: Partial agonist activity at wild type CB2 receptor (unknown origin) expressed in HEK293T assessed as increase in picometer shifts of reflected light wavelengths in presence of cannabidiol by DMR assay relative to control; conditions: filed as partial agonist
Cannabinoid receptor 2 [3] = molecular target: T2, Cannabinoid receptor 2 (Homo sapiens, UniProt P34972, V113M); experiment: Partial agonist activity at CBR2 V1133.32M mutant (unknown origin) expressed in HEK293T assessed as increase in picometer shifts of reflected light wavelengths by DMR assay
T2 sequence (P34972 whole entry V113M): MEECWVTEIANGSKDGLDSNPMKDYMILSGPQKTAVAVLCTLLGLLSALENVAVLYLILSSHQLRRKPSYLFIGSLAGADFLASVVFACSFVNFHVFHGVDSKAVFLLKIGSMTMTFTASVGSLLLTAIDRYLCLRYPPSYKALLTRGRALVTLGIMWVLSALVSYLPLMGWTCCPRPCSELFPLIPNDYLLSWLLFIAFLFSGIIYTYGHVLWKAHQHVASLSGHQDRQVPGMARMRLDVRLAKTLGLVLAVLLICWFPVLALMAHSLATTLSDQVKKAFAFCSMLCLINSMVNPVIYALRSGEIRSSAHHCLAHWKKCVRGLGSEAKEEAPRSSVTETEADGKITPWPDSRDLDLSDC

[4] = test system: Cannabinoid receptor 2 (Homo sapiens), P34972 [V113M]; experiment: Partial agonist activity at CBR2 V1133.32M mutant (unknown origin) stably expressed in HEK293T assessed as decrease in forskolin induced cAMP level preincubated for 15 mins followed by forskolin addition incubated for 15 mins by HTRF assay relative to control; conditions: filed as partial agonist, time 30.0 min
Chain of Cannabinoid receptor 2 (Homo sapiens), P34972 [V113M] (P34972 whole entry V113M): as above

Cannabinoid receptor 2 [5] = molecular target: T1, Cannabinoid receptor 2; experiment: Partial agonist activity at wild type CB2 receptor (unknown origin) expressed in HEK293T assessed as increase in ERK1/2 phosphorylation incubated for 7 mins in presence of cannabidiol by AlphaScreenSureFire method relative to control; conditions: filed as partial agonist
Cannabinoid receptor 2 [6] = molecular target: T3, Cannabinoid receptor 2 (Homo sapiens, UniProt P34972, A282M); experiment: Partial agonist activity at CBR2 A2827.36M mutant (unknown origin) stably expressed in HEK293T assessed as decrease in forskolin induced cAMP level preincubated for 15 mins followed by forskolin addition incubated for 15 mins by HTRF assay
T3 sequence (P34972 whole entry A282M): as the sequence (P34972 whole entry V113M) above, with M113V, A282M counted along it

[7] = test system: Cannabinoid receptor 2 (Homo sapiens), P34972 [V36M]; experiment: Partial agonist activity at CBR2 V361.35M mutant (unknown origin) expressed in HEK293T assessed as increase in picometer shifts of reflected light wavelengths by DMR assay relative to control; conditions: filed as partial agonist
Chain of Cannabinoid receptor 2 (Homo sapiens), P34972 [V36M] (P34972 whole entry V36M): as the sequence (P34972 whole entry V113M) above, with V36M, M113V counted along it

Cannabinoid receptor 2 [8] = molecular target: T4, Cannabinoid receptor 2 (Homo sapiens, UniProt P34972, V36M); experiment: Partial agonist activity at CBR2 V361.35M mutant (unknown origin) expressed in HEK293T assessed as increase in ERK1/2 phosphorylation incubated for 7 mins by AlphaScreenSureFire method
T4 sequence (P34972 whole entry V36M): as the sequence (P34972 whole entry V113M) above, with V36M, M113V counted along it

[9] = test system: Cannabinoid receptor 2 (Homo sapiens), P34972 [S285L]; experiment: Partial agonist activity at CBR2 S2857.39L mutant (unknown origin) expressed in HEK293T assessed as increase in ERK1/2 phosphorylation incubated for 7 mins by AlphaScreenSureFire method relative to control; conditions: filed as partial agonist
Chain of Cannabinoid receptor 2 (Homo sapiens), P34972 [S285L] (P34972 whole entry S285L): as the sequence (P34972 whole entry V113M) above, with M113V, S285L counted along it

Cannabinoid receptor 2 [10] = molecular target: T1, Cannabinoid receptor 2; experiment: Partial agonist activity at wild type CB2 receptor (unknown origin) expressed in HEK293T assessed as increase in picometer shifts of reflected light wavelengths by DMR assay
Cannabinoid receptor 2 [11] = molecular target: T2, Cannabinoid receptor 2; experiment: Partial agonist activity at CBR2 V1133.32M mutant (unknown origin) expressed in HEK293T assessed as increase in ERK1/2 phosphorylation incubated for 7 mins in presence of cannabidiol by AlphaScreenSureFire method
Cannabinoid receptor 2 [12] = molecular target: T1, Cannabinoid receptor 2; experiment: Partial agonist activity at wild type CB2 receptor (unknown origin) stably expressed in HEK293T assessed as decrease in forskolin induced cAMP level preincubated for 15 mins followed by forskolin addition incubated for 15 mins by HTRF assay relative to control; conditions: filed as partial agonist, time 30.0 min
[13] = test system: Cannabinoid receptor 2 (Homo sapiens), P34972 [V113M]; experiment: Partial agonist activity at CBR2 V1133.32M mutant (unknown origin) expressed in HEK293T assessed as increase in ERK1/2 phosphorylation incubated for 7 mins by AlphaScreenSureFire method relative to control; conditions: filed as partial agonist
Cannabinoid receptor 2 [14] = molecular target: T3, Cannabinoid receptor 2; experiment: Partial agonist activity at CBR2 A2827.36M mutant (unknown origin) expressed in HEK293T assessed as increase in ERK1/2 phosphorylation incubated for 7 mins by AlphaScreenSureFire method
Cannabinoid receptor 2 [15] = molecular target: T5, Cannabinoid receptor 2 (Homo sapiens, UniProt P34972, S285L); experiment: Partial agonist activity at CBR2 S2857.39L mutant (unknown origin) expressed in HEK293T assessed as increase in ERK1/2 phosphorylation incubated for 7 mins by AlphaScreenSureFire method
T5 sequence (P34972 whole entry S285L): as the sequence (P34972 whole entry V113M) above, with M113V, S285L counted along it

Cannabinoid receptor 2 [16] = molecular target: T2, Cannabinoid receptor 2; experiment: Partial agonist activity at CBR2 V1133.32M mutant (unknown origin) stably expressed in HEK293T assessed as decrease in forskolin induced cAMP level preincubated for 15 mins followed by forskolin addition incubated for 15 mins in presence of cannabidiol by HTRF assay
[17] = test system: Cannabinoid receptor 2 (Homo sapiens), P34972 [V36M]; experiment: Partial agonist activity at CBR2 V361.35M mutant (unknown origin) stably expressed in HEK293T assessed as decrease in forskolin induced cAMP level preincubated for 15 mins followed by forskolin addition incubated for 15 mins in presence of cannabidiol by HTRF assay relative to control; conditions: filed as partial agonist, time 30.0 min
Cannabinoid receptor 2 [18] = molecular target: T1, Cannabinoid receptor 2; experiment: Partial agonist activity at wild type CB2 receptor (unknown origin) expressed in HEK293T assessed as increase in ERK1/2 phosphorylation incubated for 7 mins in presence of cannabidiol by AlphaScreenSureFire method
Cannabinoid receptor 2 [19] = molecular target: T2, Cannabinoid receptor 2; experiment: Partial agonist activity at CBR2 V1133.32M mutant (unknown origin) stably expressed in HEK293T assessed as decrease in forskolin induced cAMP level preincubated for 15 mins followed by forskolin addition incubated for 15 mins by HTRF assay
Cannabinoid receptor 2 [20] = molecular target: T4, Cannabinoid receptor 2; experiment: Partial agonist activity at CBR2 V361.35M mutant (unknown origin) expressed in HEK293T assessed as increase in ERK1/2 phosphorylation incubated for 7 mins in presence of cannabidiol by AlphaScreenSureFire method
Cannabinoid receptor 2 [21] = molecular target: T1, Cannabinoid receptor 2; experiment: Positive allosteric modulation of JWH-133-induced agonist activity at wild type CB2 receptor (unknown origin) stably expressed in HEK293T cells assessed as inhibition of forskolin-stimulated cAMP levels preincubated for 15 mins followed by forskolin addition incubated for 15 mins by HTRF assay
Cannabinoid receptor 2 [22] = molecular target: T5, Cannabinoid receptor 2; experiment: Partial agonist activity at CBR2 S2857.39L mutant (unknown origin) stably expressed in HEK293T assessed as decrease in forskolin induced cAMP level preincubated for 15 mins followed by forskolin addition incubated for 15 mins in presence of cannabidiol by HTRF assay
[23] = test system: Cannabinoid receptor 2 (Homo sapiens), P34972 [V36M]; experiment: Partial agonist activity at CBR2 V361.35M mutant (unknown origin) stably expressed in HEK293T assessed as decrease in forskolin induced cAMP level preincubated for 15 mins followed by forskolin addition incubated for 15 mins by HTRF assay relative to control; conditions: filed as partial agonist, time 30.0 min
Cannabinoid receptor 2 [24] = molecular target: T4, Cannabinoid receptor 2; experiment: Partial agonist activity at CBR2 V361.35M mutant (unknown origin) expressed in HEK293T assessed as increase in picometer shifts of reflected light wavelengths by DMR assay
Cannabinoid receptor 2 [25] = molecular target: T3, Cannabinoid receptor 2; experiment: Partial agonist activity at CBR2 A2827.36M mutant (unknown origin) stably expressed in HEK293T assessed as decrease in forskolin induced cAMP level preincubated for 15 mins followed by forskolin addition incubated for 15 mins in presence of cannabidiol by HTRF assay
Cannabinoid receptor 2 [26] = molecular target: T4, Cannabinoid receptor 2; experiment: Partial agonist activity at CBR2 V361.35M mutant (unknown origin) expressed in HEK293T assessed as increase in picometer shifts of reflected light wavelengths in presence of cannabidiol by DMR assay
[27] = test system: Cannabinoid receptor 2 (Homo sapiens), P34972 [S285L]; experiment: Partial agonist activity at CBR2 S2857.39L mutant (unknown origin) stably expressed in HEK293T assessed as decrease in forskolin induced cAMP level preincubated for 15 mins followed by forskolin addition incubated for 15 mins in presence of cannabidiol by HTRF assay relative to control; conditions: filed as partial agonist, time 30.0 min

T1 sequence (P34972 whole entry): as the sequence (P34972 whole entry V113M) above, with M113V counted along it

CCCC(C)(C)c1cc(O)c2c(c1)OC(C)(C)[C@@H]1CC=C(C)C[C@@H]21
Emax (Cannabinoid receptor 2 [1]): 183% | Emax (Cannabinoid receptor 2 [2]): 117% | EC50 (Cannabinoid receptor 2 [3]): 501 nM | Emax [4]: 72.5% | Emax (Cannabinoid receptor 2 [5]): 250% | EC50 (Cannabinoid receptor 2 [6]): 12.6 nM | Emax [7]: 193% | EC50 (Cannabinoid receptor 2 [8]): 31.6 nM | Emax [9]: 374% | EC50 (Cannabinoid receptor 2 [10]): 631 nM | EC50 (Cannabinoid receptor 2 [11]): 39.8 nM | Emax (Cannabinoid receptor 2 [12]): 46% | Emax [13]: 276% | EC50 (Cannabinoid receptor 2 [14]): 20 nM | EC50 (Cannabinoid receptor 2 [15]): 39.8 nM | EC50 (Cannabinoid receptor 2 [16]): 25.1 nM | Emax [17]: 53% | EC50 (Cannabinoid receptor 2 [18]): 7.94 nM | EC50 (Cannabinoid receptor 2 [19]): 20 nM | EC50 (Cannabinoid receptor 2 [20]): 39.8 nM | EC50 (Cannabinoid receptor 2 [21]): 25.1 nM | EC50 (Cannabinoid receptor 2 [22]): 39.8 nM | Emax [23]: 56.7% | EC50 (Cannabinoid receptor 2 [24]): 631 nM | EC50 (Cannabinoid receptor 2 [25]): 7.94 nM | EC50 (Cannabinoid receptor 2 [26]): 631 nM | Emax [27]: 57.4%
